Assay results: ChEMBL document CHEMBL5724914, “Linking interpersonal differences in gut microbiota composition and drug biotransformation activity” (2024)

Experiments:
[1] = human gut metagenome, 24 h, 2 µM
[2] = The drug is tested on Z-022 corresponding to mouse gut metagenome with ENA study accession number: PRJEB37062 and ENA sample accession number: ERS12561821 for biotransformation under anaerobic condition. The drug concentrations were measured over 9 timepoints collected between 0 and 24 hours of incubation by liquid-chromatography-coupled mass spectrometry (LC–MS); settings: 2 µM
[3] = human gut metagenome, 24 h, 2 µM; remark: listed apart in the source
[4] = human gut metagenome, 24 h, 2 µM; remark: listed apart in the source
[5] = The drug is tested on Z-018 corresponding to pig gut metagenome with ENA study accession number: PRJEB37062 and ENA sample accession number: ERS12561817 for biotransformation under anaerobic condition. The drug concentrations were measured over 9 timepoints collected between 0 and 24 hours of incubation by liquid-chromatography-coupled mass spectrometry (LC–MS); settings: 2 µM
[6] = human gut metagenome, 24 h, 2 µM; remark: listed apart in the source
[7] = The drug is tested on WLS-027 corresponding to human gut metagenome with ENA study accession number: PRJEB37062 and ENA sample accession number: ERS12561744 for biotransformation under anaerobic condition. The drug concentrations were measured over 9 timepoints collected between 0 and 24 hours of incubation by liquid-chromatography-coupled mass spectrometry (LC–MS); settings: 2 µM
[8] = The drug is tested on WLS-038 corresponding to human gut metagenome with ENA study accession number: PRJEB37062 and ENA sample accession number: ERS12561745 for biotransformation under anaerobic condition. The drug concentrations were measured over 9 timepoints collected between 0 and 24 hours of incubation by liquid-chromatography-coupled mass spectrometry (LC–MS); settings: 2 µM
[9] = The drug is tested on WLS-350 corresponding to human gut metagenome with ENA study accession number: PRJEB37062 and ENA sample accession number: ERS12561789 for biotransformation under anaerobic condition. The drug concentrations were measured over 9 timepoints collected between 0 and 24 hours of incubation by liquid-chromatography-coupled mass spectrometry (LC–MS); settings: 2 µM
[10] = human gut metagenome, 24 h, 2 µM; remark: listed apart in the source
[11] = The drug is tested on WLS-010 corresponding to human gut metagenome with ENA study accession number: PRJEB37062 and ENA sample accession number: ERS12561743 for biotransformation under anaerobic condition. The drug concentrations were measured over 9 timepoints collected between 0 and 24 hours of incubation by liquid-chromatography-coupled mass spectrometry (LC–MS); settings: 2 µM
[12] = The drug is tested on WLS-090 corresponding to human gut metagenome with ENA study accession number: PRJEB37062 and ENA sample accession number: ERS12561753 for biotransformation under anaerobic condition. The drug concentrations were measured over 9 timepoints collected between 0 and 24 hours of incubation by liquid-chromatography-coupled mass spectrometry (LC–MS); settings: 2 µM
[13] = The drug is tested on Z-014 corresponding to rat gut metagenome with ENA study accession number: PRJEB37062 and ENA sample accession number: ERS12561814 for biotransformation under anaerobic condition. The drug concentrations were measured over 9 timepoints collected between 0 and 24 hours of incubation by liquid-chromatography-coupled mass spectrometry (LC–MS); settings: 2 µM
[14] = human gut metagenome, 24 h, 2 µM; remark: listed apart in the source
[15] = human gut metagenome, 24 h, 2 µM; remark: listed apart in the source
[16] = The drug is tested on Z-029 corresponding to rat gut metagenome with ENA study accession number: PRJEB37062 and ENA sample accession number: ERS12561828 for biotransformation under anaerobic condition. The drug concentrations were measured over 9 timepoints collected between 0 and 24 hours of incubation by liquid-chromatography-coupled mass spectrometry (LC–MS); settings: 2 µM
[17] = The drug is tested on WLS-039 corresponding to human gut metagenome with ENA study accession number: PRJEB37062 and ENA sample accession number: ERS12561746 for biotransformation under anaerobic condition. The drug concentrations were measured over 9 timepoints collected between 0 and 24 hours of incubation by liquid-chromatography-coupled mass spectrometry (LC–MS); settings: 2 µM
[18] = human gut metagenome, 24 h, 2 µM; remark: listed apart in the source
[19] = human gut metagenome, 24 h, 2 µM; remark: listed apart in the source
[20] = The drug is tested on Z-010 corresponding to metagenome with ENA study accession number: PRJEB37062 and ENA sample accession number: ERS12561810 for biotransformation under anaerobic condition. The drug concentrations were measured over 9 timepoints collected between 0 and 24 hours of incubation by liquid-chromatography-coupled mass spectrometry (LC–MS); settings: 2 µM
Also: call rule not given here.

Row | Compound | Bacterial Biotransformation [1] | Bacterial Biotransformation [2] | Bacterial Biotransformation [3] | Bacterial Biotransformation [4] | Bacterial Biotransformation [5] | Bacterial Biotransformation [6] | Bacterial Biotransformation [7] | Bacterial Biotransformation [8] | Bacterial Biotransformation [9] | Bacterial Biotransformation [10] | Bacterial Biotransformation [11] | Bacterial Biotransformation [12] | Bacterial Biotransformation [13] | Bacterial Biotransformation [14] | Bacterial Biotransformation [15] | Bacterial Biotransformation [16] | Bacterial Biotransformation [17] | Bacterial Biotransformation [18] | Bacterial Biotransformation [19] | Bacterial Biotransformation [20]
1 | CCN(CC)CC#CCOC(=O)C(O)(c1ccccc1)C1CCCCC1.Cl (stereo not given) [OXYBUTYNIN CHLORIDE] | Compound metabolized | Compound metabolized | Compound metabolized | Compound metabolized | Compound metabolized | Compound metabolized | Compound metabolized | Compound metabolized | Compound metabolized | Compound metabolized | Compound metabolized | Compound metabolized | Compound NOT metabolized | Compound metabolized | Compound NOT metabolized | Compound NOT metabolized | Compound metabolized | Compound metabolized | Compound metabolized | Compound metabolized
2 | Fc1ccc([C@@H]2CCNC[C@H]2COc2ccc3c(c2)OCO3)cc1 [PAROXETINE] | Compound metabolized | Compound metabolized | Compound metabolized | Compound NOT metabolized | Compound NOT metabolized | Compound NOT metabolized | Compound metabolized | Compound metabolized | Compound metabolized | Compound metabolized | Compound metabolized | Compound metabolized | Compound NOT metabolized | Compound metabolized | Compound NOT metabolized | Compound NOT metabolized | Compound metabolized | Compound metabolized | Compound NOT metabolized | Compound metabolized
3 | O=c1[nH]c2ccccc2n1C1CCN(CCCC(c2ccc(F)cc2)c2ccc(F)cc2)CC1 [PIMOZIDE] | Compound metabolized | Compound NOT metabolized | Compound metabolized | Compound metabolized | Compound metabolized | Compound NOT metabolized | Compound metabolized | Compound metabolized | Compound metabolized | Compound NOT metabolized | Compound metabolized | Compound metabolized | Compound NOT metabolized | Compound metabolized | Compound NOT metabolized | Compound NOT metabolized | Compound NOT metabolized | Compound metabolized | Compound metabolized | Compound metabolized
4 | COc1cc2nc(N3CCN(C(=O)c4ccco4)CC3)nc(N)c2cc1OC [PRAZOSIN] | Compound NOT metabolized | Compound NOT metabolized | Compound metabolized | Compound NOT metabolized | Compound NOT metabolized | Compound NOT metabolized | Compound NOT metabolized | Compound NOT metabolized | Compound NOT metabolized | Compound NOT metabolized | Compound metabolized | Compound metabolized | Compound NOT metabolized | Compound metabolized | Compound NOT metabolized | Compound NOT metabolized | Compound NOT metabolized | Compound metabolized | Compound NOT metabolized | Compound NOT metabolized
5 | CS(=O)(=O)O.OC(CCN1CCCCC1)(c1ccccc1)c1ccccc1 [PRIDINOL METHANESULFONATE] | Compound NOT metabolized | Compound NOT metabolized | Compound metabolized | Compound NOT metabolized | Compound NOT metabolized | Compound NOT metabolized | Compound NOT metabolized | Compound NOT metabolized | Compound NOT metabolized | Compound NOT metabolized | Compound NOT metabolized | Compound metabolized | Compound NOT metabolized | Compound metabolized | Compound NOT metabolized | Compound NOT metabolized | Compound NOT metabolized | Compound metabolized | Compound NOT metabolized | Compound NOT metabolized
6 | CC(CN1c2ccccc2Sc2ccccc21)N(C)C (stereo not given) [PROMETHAZINE] | Compound metabolized | Compound NOT metabolized | Compound metabolized | Compound NOT metabolized | Compound metabolized | Compound NOT metabolized | Compound metabolized | Compound metabolized | Compound metabolized | Compound NOT metabolized | Compound NOT metabolized | Compound metabolized | Compound NOT metabolized | Compound NOT metabolized | Compound NOT metabolized | Compound NOT metabolized | Compound metabolized | Compound NOT metabolized | Compound NOT metabolized | Compound metabolized
